Measured values from US8703801B2, “Pyridinone hydroxycyclopentyl carboxamides: HIV integrase inhibitors with therapeutic applications” (University of Georgia Research Foundation, Inc., priority 2009, dated 2014).

Test system: HIV
Assay: anti-HIV activity in cell culture
Assay type: cell-based
Conditions: Human immunodeficiency virus 1, in vitro

Row | EC50 [nM] | SMILES
1 | 10 | O=C(NN1CCCC1=O)/C(O)=C/C(=O)c1cc(Cc2c(F)cccc2F)cn(Cc2ccccc2F)c1=O [FIG. 1b]
2 | 25 | O=C(N[C@H]1CCC[C@@H]1O)/C(O)=C/C(=O)c1cc(Cc2ccc(F)cc2F)cn(Cc2ccccc2F)c1=O [FIG. 1a]
